Laboratory results from patent US20160108381A1, “DNA POLYMERASES AND MUTANTS THEREOF” (LIFE TECHNOLOGIES CORPORATION, priority 2001, published 2016).

How the values were obtained:
[1] = biological target: T1, Clostridium stercorarium DNA polymerase, N-terminal His6 tag (Cst-His), SEQ ID NO:14 (Thermoclostridium stercorarium, UniProt L7VMI6); assay: Steady-state kinetics, DNA- and RNA-dependent polymerase activity; conditions: Table 34, DNA template, 2 mM MgCl2, 45 °C per footnote
T1 sequence (L7VMI6 with tags, fused parts or gaps): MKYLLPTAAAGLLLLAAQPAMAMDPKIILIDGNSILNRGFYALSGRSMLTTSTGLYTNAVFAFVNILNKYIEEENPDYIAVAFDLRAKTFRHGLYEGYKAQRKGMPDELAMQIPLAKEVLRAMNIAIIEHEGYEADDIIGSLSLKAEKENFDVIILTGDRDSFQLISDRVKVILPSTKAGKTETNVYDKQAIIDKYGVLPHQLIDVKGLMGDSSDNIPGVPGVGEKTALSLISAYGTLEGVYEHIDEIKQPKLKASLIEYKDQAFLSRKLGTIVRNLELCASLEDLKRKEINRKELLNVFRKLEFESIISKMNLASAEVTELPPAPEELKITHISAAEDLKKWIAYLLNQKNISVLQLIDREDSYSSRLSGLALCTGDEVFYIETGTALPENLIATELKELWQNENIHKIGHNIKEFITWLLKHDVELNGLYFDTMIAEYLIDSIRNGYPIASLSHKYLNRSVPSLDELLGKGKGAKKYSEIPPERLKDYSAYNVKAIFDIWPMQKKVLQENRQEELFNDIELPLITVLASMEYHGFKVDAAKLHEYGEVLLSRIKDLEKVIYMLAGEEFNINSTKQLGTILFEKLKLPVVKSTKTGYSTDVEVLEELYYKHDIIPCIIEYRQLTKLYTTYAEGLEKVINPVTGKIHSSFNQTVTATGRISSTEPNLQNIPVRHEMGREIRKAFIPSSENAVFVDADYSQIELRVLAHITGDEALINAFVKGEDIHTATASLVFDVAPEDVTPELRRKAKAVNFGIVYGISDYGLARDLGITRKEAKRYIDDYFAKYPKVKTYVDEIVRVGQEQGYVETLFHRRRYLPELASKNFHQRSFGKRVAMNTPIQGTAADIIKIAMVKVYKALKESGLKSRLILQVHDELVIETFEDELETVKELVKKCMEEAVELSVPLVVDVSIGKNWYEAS
Description: (§1) Subcloning of genes for Cst and Cth DNA polymerases. In order to improve expression and simplify purification of Cst and Cth DNA polymerase, the genes were subcloned downstream of a T7 promoter and an amino-terminal His6 tag sequence was introduced using Gateway cloning technology (Invitrogen Corporation, Carlsbad, Calif.). The sequence of the DNA oligonucleotide used at the 5′ end of the Cst gene was: 5′-[…] ATAGAC 3′ (SEQ ID NO:37). The sequence of the DNA oligonucleotide used at the 5′ end of the Cth gene was: 5′-[…] […]-3′ (SEQ ID NO:38). The sequence of the DNA oligonucleotide used at the 3′ end of each gene was the same: 5′-[…] […] 3′ (SEQ ID NO:39). Purified pET26B plasmid DNA (Novagen Inc., Madison, Wis.) bearing the gene for Cst or Cth DNA polymerase was amplified by PCR utilizing the primers listed above and Platinum Taq HiFi DNA polymerase (Invitrogen Corporation, Carlsbad, Calif.). PCR products purified by agarose gel electrophoresis were cloned into Gateway vector pDON21 and transferred by recombination into vector pDEST17. […] Each final recombinant plasmid was transformed into the E. coli expression host BL21-AI (Invitrogen Corporation, Carlsbad, Calif.).
(§2) Purification of Cst-His and Cth-His DNA polymerases. E. coli cells (BL21AI) bearing the plasmid pDEST17 with the gene for Cst-His or Cth-His DNA polymerase were grown in 2.8-1 Fembach flasks in LB broth containing 50 μg/ml ampicillin at 37° C. After the culture reached an A590 of 1.0, expression of DNA polymerase was induced by the addition of 0.2% arabinose for 3 hr. Cells were harvested by centrifugation and stored at −70° C.
(§3) Steady-state kinetic measurements.
(§4) The assays were conducted in the presence of 1.5 mM MgCl2 at 55° C. for all enzymes except the Caldibacillus cellulovorans CompA.2 enzyme where 2 mM MgCl2 and 45° C. were used.

[2] = biological target: T2, Clostridium thermosulfurogenes DNA polymerase, N-terminal His6 tag (Cth-His), SEQ ID NO:15 (Thermoanaerobacterium thermosulfurigenes, UniProt Q6X9R5); assay: as above; conditions: Table 34, DNA template, 2 mM MgCl2, 45 °C per footnote
T2 sequence (Q6X9R5 with tags, fused parts or gaps): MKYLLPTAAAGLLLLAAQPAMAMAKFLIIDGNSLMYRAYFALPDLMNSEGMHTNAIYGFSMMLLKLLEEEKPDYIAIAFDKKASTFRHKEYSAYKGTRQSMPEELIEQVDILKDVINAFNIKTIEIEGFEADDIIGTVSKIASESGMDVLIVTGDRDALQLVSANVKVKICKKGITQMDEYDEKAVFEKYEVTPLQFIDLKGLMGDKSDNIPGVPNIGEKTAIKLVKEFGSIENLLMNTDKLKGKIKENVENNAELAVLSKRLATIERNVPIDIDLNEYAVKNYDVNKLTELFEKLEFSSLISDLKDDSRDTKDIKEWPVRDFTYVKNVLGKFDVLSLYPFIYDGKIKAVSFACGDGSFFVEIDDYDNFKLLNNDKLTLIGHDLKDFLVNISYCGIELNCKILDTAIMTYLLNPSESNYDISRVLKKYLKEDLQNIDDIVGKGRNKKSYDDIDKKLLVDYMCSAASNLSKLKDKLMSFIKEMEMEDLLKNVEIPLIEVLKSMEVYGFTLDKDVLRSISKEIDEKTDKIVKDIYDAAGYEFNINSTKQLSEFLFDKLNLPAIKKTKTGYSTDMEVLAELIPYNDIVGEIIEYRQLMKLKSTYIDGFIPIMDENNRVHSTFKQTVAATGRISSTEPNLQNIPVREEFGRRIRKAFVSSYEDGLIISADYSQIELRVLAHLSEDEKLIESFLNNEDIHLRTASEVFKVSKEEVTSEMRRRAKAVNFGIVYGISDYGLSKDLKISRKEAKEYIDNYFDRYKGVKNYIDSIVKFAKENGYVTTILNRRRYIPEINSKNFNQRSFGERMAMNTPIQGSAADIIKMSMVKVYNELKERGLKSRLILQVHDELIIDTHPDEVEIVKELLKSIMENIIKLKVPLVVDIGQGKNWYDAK
Description: as §1, §2, §3, §4

[3] = biological target: SuperScript II reverse transcriptase (SSII, SS II RT), a modified M-MLV reverse transcriptase (Moloney murine leukemia virus isolate Shinnick, UniProt P03355); assay: as above; type: biochemical
Method: (§5) Thermotoga neapolitana (Tne) DNA polymerase mutated to eliminate 3′ to 5′ and 5′ to 3′ exonuclease activity was cloned, engineered and purified as described in U.S. Pat. No. 6,306,588. SuperScript II reverse transcriptase (SS II RT) was from Invitrogen Corporation, Carlsbad, Calif.
as §3
(§6) The catalytic rate constant kcat and the Michaelis constant KM were determined for both the DNA-dependent and RNA-dependent polymerase activities for the polypeptides of the invention and these parameters were compared to those of Tne DNA polymerase enzyme and […]™ II reverse transcriptase. […]

[4] = biological target: T3, Thermotoga neapolitana (Tne) DNA polymerase, mutated to eliminate 3′ to 5′ and 5′ to 3′ exonuclease activity (Thermotoga neapolitana, UniProt B9K7T2); assay: as above; type: biochemical
T3 construct: mutated to eliminate 3'-5' and 5'-3' exonuclease activity as in US 6,306,588 (recalled, unsure: D137A and D323A)
T3 sequence (B9K7T2 entry or part of it, stated change not applied): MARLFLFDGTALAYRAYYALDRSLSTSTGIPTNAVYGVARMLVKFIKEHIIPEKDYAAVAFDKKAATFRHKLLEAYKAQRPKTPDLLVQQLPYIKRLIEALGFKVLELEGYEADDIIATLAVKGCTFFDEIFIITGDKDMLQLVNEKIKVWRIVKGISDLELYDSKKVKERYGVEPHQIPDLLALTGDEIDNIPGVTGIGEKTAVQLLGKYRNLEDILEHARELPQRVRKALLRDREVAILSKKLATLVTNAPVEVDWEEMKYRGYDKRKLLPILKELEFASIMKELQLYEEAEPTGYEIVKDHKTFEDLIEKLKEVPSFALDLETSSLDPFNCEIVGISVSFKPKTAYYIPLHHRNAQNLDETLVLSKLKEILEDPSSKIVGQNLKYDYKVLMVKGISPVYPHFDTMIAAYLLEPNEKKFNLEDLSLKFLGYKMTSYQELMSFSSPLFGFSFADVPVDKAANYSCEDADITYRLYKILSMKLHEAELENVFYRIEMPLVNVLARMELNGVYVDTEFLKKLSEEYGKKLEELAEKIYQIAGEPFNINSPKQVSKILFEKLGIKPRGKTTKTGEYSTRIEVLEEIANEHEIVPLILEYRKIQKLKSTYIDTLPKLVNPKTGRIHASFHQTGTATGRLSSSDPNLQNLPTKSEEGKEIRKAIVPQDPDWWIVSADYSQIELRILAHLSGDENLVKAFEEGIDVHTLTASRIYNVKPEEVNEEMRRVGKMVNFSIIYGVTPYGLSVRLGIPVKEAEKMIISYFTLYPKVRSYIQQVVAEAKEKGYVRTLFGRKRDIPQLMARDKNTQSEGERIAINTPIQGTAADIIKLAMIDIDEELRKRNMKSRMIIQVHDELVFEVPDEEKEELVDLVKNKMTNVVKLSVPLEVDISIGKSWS
Method: as §5, §3, §6

[5] = substrate: Cc1cn([C@H]2C[C@H](O)[C@@H](COP(=O)(O)OP(=O)(O)OP(=O)(O)O)O2)c(=O)[nH]c1=O; assay: purified protein, by the assay type; conditions: 55 °C, mean ± SD
[6] = Table 34, DNA template, 2 mM MgCl2, 45 °C per footnote
[7] = read-out: Km DNA (dGTP), Table 34, DNA template, 2 mM MgCl2, 45 °C per footnote
[8] = other: Table 40, (dA)270•(dT)40, dTTP
[9] = other: Table 40, (rA)250•(dT)30, dTTP

Molecule: Nc1nc2c(ncn2[C@H]2C[C@H](O)[C@@H](COP(=O)(O)OP(=O)(O)OP(=O)(O)O)O2)c(=O)[nH]1 [dGTP]
- Kcat DNA (dGTP) [1]: 11.5 s⁻¹
- Km ([1]; read-out: Km DNA (dGTP)): 0.5 µM
- Kcat DNA (dGTP) [2]: 57 s⁻¹
- Km ([2]; read-out: Km DNA (dGTP)): 17.1 µM
- Kcat DNA (dGTP) [3, 6]: 15.4 s⁻¹
- kCAT DNA-DNA ([3]; Table 40, (dC)n•(dG)35, dGTP, 37 °C, mean ± SD): 16 ± 2 s⁻¹
- Km [3, 7]: 2.4 µM
- Kcat DNA (dGTP) [4, 6]: 17.5 s⁻¹
- kCAT DNA-DNA ([4]; Table 40, (dC)n•(dG)35, dGTP, 72 °C, mean ± SD): 130 ± 32 s⁻¹
- Km [4, 7]: 17.2 µM

B1: Clostridium thermosulfurogenes DNA polymerase, N-terminal His6 tag (Cth-His), SEQ ID NO:15 (Thermoanaerobacterium thermosulfurigenes) (protein)
chain: MKYLLPTAAAGLLLLAAQPAMAMAKFLIIDGNSLMYRAYFALPDLMNSEGMHTNAIYGFSMMLLKLLEEEKPDYIAIAFDKKASTFRHKEYSAYKGTRQSMPEELIEQVDILKDVINAFNIKTIEIEGFEADDIIGTVSKIASESGMDVLIVTGDRDALQLVSANVKVKICKKGITQMDEYDEKAVFEKYEVTPLQFIDLKGLMGDKSDNIPGVPNIGEKTAIKLVKEFGSIENLLMNTDKLKGKIKENVENNAELAVLSKRLATIERNVPIDIDLNEYAVKNYDVNKLTELFEKLEFSSLISDLKDDSRDTKDIKEWPVRDFTYVKNVLGKFDVLSLYPFIYDGKIKAVSFACGDGSFFVEIDDYDNFKLLNNDKLTLIGHDLKDFLVNISYCGIELNCKILDTAIMTYLLNPSESNYDISRVLKKYLKEDLQNIDDIVGKGRNKKSYDDIDKKLLVDYMCSAASNLSKLKDKLMSFIKEMEMEDLLKNVEIPLIEVLKSMEVYGFTLDKDVLRSISKEIDEKTDKIVKDIYDAAGYEFNINSTKQLSEFLFDKLNLPAIKKTKTGYSTDMEVLAELIPYNDIVGEIIEYRQLMKLKSTYIDGFIPIMDENNRVHSTFKQTVAATGRISSTEPNLQNIPVREEFGRRIRKAFVSSYEDGLIISADYSQIELRVLAHLSEDEKLIESFLNNEDIHLRTASEVFKVSKEEVTSEMRRRAKAVNFGIVYGISDYGLSKDLKISRKEAKEYIDNYFDRYKGVKNYIDSIVKFAKENGYVTTILNRRRYIPEINSKNFNQRSFGERMAMNTPIQGSAADIIKMSMVKVYNELKERGLKSRLILQVHDELIIDTHPDEVEIVKELLKSIMENIIKLKVPLVVDIGQGKNWYDAK
- kcat [5, 8]: 28 ± 1 s⁻¹
- kcat [5, 9]: 16 ± 1 s⁻¹

B2: Clostridium stercorarium DNA polymerase, N-terminal His6 tag (Cst-His), SEQ ID NO:14 (Thermoclostridium stercorarium subsp. stercorarium DSM 8532) (protein)
chain: MKYLLPTAAAGLLLLAAQPAMAMDPKIILIDGNSILNRGFYALSGRSMLTTSTGLYTNAVFAFVNILNKYIEEENPDYIAVAFDLRAKTFRHGLYEGYKAQRKGMPDELAMQIPLAKEVLRAMNIAIIEHEGYEADDIIGSLSLKAEKENFDVIILTGDRDSFQLISDRVKVILPSTKAGKTETNVYDKQAIIDKYGVLPHQLIDVKGLMGDSSDNIPGVPGVGEKTALSLISAYGTLEGVYEHIDEIKQPKLKASLIEYKDQAFLSRKLGTIVRNLELCASLEDLKRKEINRKELLNVFRKLEFESIISKMNLASAEVTELPPAPEELKITHISAAEDLKKWIAYLLNQKNISVLQLIDREDSYSSRLSGLALCTGDEVFYIETGTALPENLIATELKELWQNENIHKIGHNIKEFITWLLKHDVELNGLYFDTMIAEYLIDSIRNGYPIASLSHKYLNRSVPSLDELLGKGKGAKKYSEIPPERLKDYSAYNVKAIFDIWPMQKKVLQENRQEELFNDIELPLITVLASMEYHGFKVDAAKLHEYGEVLLSRIKDLEKVIYMLAGEEFNINSTKQLGTILFEKLKLPVVKSTKTGYSTDVEVLEELYYKHDIIPCIIEYRQLTKLYTTYAEGLEKVINPVTGKIHSSFNQTVTATGRISSTEPNLQNIPVRHEMGREIRKAFIPSSENAVFVDADYSQIELRVLAHITGDEALINAFVKGEDIHTATASLVFDVAPEDVTPELRRKAKAVNFGIVYGISDYGLARDLGITRKEAKRYIDDYFAKYPKVKTYVDEIVRVGQEQGYVETLFHRRRYLPELASKNFHQRSFGKRVAMNTPIQGTAADIIKIAMVKVYKALKESGLKSRLILQVHDELVIETFEDELETVKELVKKCMEEAVELSVPLVVDVSIGKNWYEAS
- kcat [5, 8]: 40 ± 13 s⁻¹
- kcat [5, 9]: 88 ± 5 s⁻¹
